Common to all, as to type: cell-based
In assay [1] the target is KDR (phospho-KDR, VEGF165-stimulated HUVEC cells) (Homo sapiens (Human), UniProt P35968). Nature of the assay: KDR autophosphorylation ELISA in HUVEC cells (Example G). As to conditions: cellular activity. How it is done:
Human umbilical vein endothelial cells or HUVEC (Lonza #C2519A) were seeded at 2×10^4 cells/well onto 96-well plates (Corning #3904), in EGM-2 growth medium (Lonza #CC-3162) containing 1% Penicillin Streptomycin (Thermo Fisher #15140-122). HUVEC cells were incubated at 37° C., 5% CO2 for 24 h and then starved for 24 h in serum-free EBM-2 basal medium (Lonza #CC-3156) containing 1% Penicillin Streptomycin. Test compounds were serially diluted to produce an 8-point dose curve in fresh serum-free medium to a final concentration of 0.3% DMSO (vehicle) and added to the cells and incubated for 1 h. Cells were then stimulated with 100 ng/mL recombinant human VEGF165 (R&D Systems #293-VE-500) for 5 min, washed with cold PBS, and immediately lysed with […] of cold 1× lysis buffer [20 mM Tris, 137 mM sodium chloride, 2 mM EDTA, 10% glycerol, 1% NP-40 alternative, 1 mM activated sodium orthovanadate, 1 mM PefaBloc SC (Sigma-Aldrich #11429868001), protease/phosphatase inhibitor tablet (Thermo Fisher #A32959)]. Lysates were collected and 100 μL/well added into the human phospho-KDR DuoSet IC ELISA (R&D Systems #DYC1766-2). Assay was performed according to manufacturer's instructions and sample phospho-KDR concentrations were extrapolated using human phospho-KDR control (R&D Systems #841421) as a standard. Positive control wells (100% activity) contained VEGF165-stimulated, DMSO-treated cell lysates. Negative control wells (0% activity) contained non-stimulated cell lysates. IC50 values were calculated by nonlinear regression analysis using a 4-parameter logistic curve fit in ActivityBase XE (IDBS).
Background: An ELISA detects its analyte on a solid surface through an enzyme-linked reagent.

Assay [2] concerns the target Met (phospho-Met, HGF-stimulated PC-3 prostate cancer cells) (Homo sapiens (Human), UniProt P08581). Nature of the assay: Met autophosphorylation ELISA in PC-3 cells (Example F). The settings on record: cellular activity, read-out: c-Met IC50. As for the experimental part:
PC-3 prostate cancer cells (ATCC #CRL-1435) were seeded at 4×10^4 cells/well onto 24-well plates (Greiner #662165), in DMEM (Thermo Fisher #11995-040) containing 10% FBS (Thermo Fisher #26140-079), 1% MEM NEAA (Thermo Fisher #11140-050), 1% GlutaMax (Thermo Fisher #35050-061), and 1% Penicillin Streptomycin (Thermo Fisher #15140-122). PC-3 cells were incubated at 37° C., 5% CO2 for 24 h and then starved for 3 h in serum-free medium. Test compounds were serially diluted to produce an 8-point dose curve in fresh serum-free medium to a final concentration of 0.3% DMSO (vehicle) and added to the cells and incubated for 1 h. Cells were then stimulated with 100 ng/mL recombinant human HGF (R&D Systems #294-HG-250) for 10 min, washed with cold PBS, and immediately lysed with […] of cold 1× lysis buffer [20 mM Tris, 137 mM sodium chloride, 2 mM EDTA, 10% glycerol, 1% NP-40 alternative, 1 mM activated sodium orthovanadate, 1 mM PefaBloc SC (Sigma-Aldrich #11429868001), protease/phosphatase inhibitor tablet (Thermo Fisher #A32959)]. Lysates were clarified by centrifugation and 100 μL/well added into the PathScan phospho-Met (panTyr) Sandwich ELISA (Cell Signaling Technology #7333). Assay was performed according to manufacturer's instructions. Positive control wells (100% activity) contained HGF-stimulated, DMSO-treated cell lysates. Negative control wells (0% activity) contained HGF-stimulated, reference inhibitor-treated cell lysates. IC50 values were calculated by nonlinear regression analysis using a 4-parameter logistic curve fit in ActivityBase XE (IDBS).

Assay [3] has as its target Mer (phospho-Mer, MERTK-transfected 293A cells) (Homo sapiens (Human), UniProt Q12866). Nature of the assay: Mer autophosphorylation ELISA in transient transfected 293A cells (Example H). As to conditions: cellular activity. As for the experimental part: 293A cells (Thermo Fisher #R70507) were seeded at 1.5×10^6 cells/well onto 100 mm dish (Greiner #664169), in DMEM (Thermo Fisher #11995-040) containing 10% FBS (Thermo Fisher #26140-079), 1% MEM NEAA (Thermo Fisher #11140-050), 1% GlutaMax (Thermo Fisher #35050-061), and 1% Penicillin Streptomycin (Thermo Fisher #15140-122). 293A cells were incubated at 37° C., 5% CO2 for 24 h and then transfected with […] MERTK DNA (Genecopoeia #EX-Z8208-M02) using TransIT LT1 transfection reagent (Mirus-Bio #MIR2305). After 24 h incubation, the transfected 293A cells were seeded at 1×10^5 cells/well onto 96-well plates (Corning #3904) in DMEM growth medium overnight. Test compounds were serially diluted to produce an 8-point dose curve in fresh serum-free medium to a final concentration of 0.3% DMSO (vehicle) and added to the cells and incubated for 1 h. Cells were then immediately lysed with 150 μL of cold 1× lysis buffer [20 mM Tris, 137 mM sodium chloride, 2 mM EDTA, 10% glycerol, 1% NP-40 alternative, 1 mM activated sodium orthovanadate, 1 mM PefaBloc SC (Sigma-Aldrich #11429868001), protease/phosphatase inhibitor tablet (Thermo Fisher #A32959)]. Lysates were clarified by centrifugation and 50 µL/well added in to the human phospho-Mer DuoSet IC ELISA (R&D Systems #DYC2579-2). Assay was performed according to manufacturer's instructions and sample phospho-Mer concentrations were extrapolated using human phospho-Mer control (R&D Systems #841793) as a standard. Positive control wells (100% activity) contained DMSO-treated cell lysates. Negative control wells (0% activity) contained reference inhibitor-treated cell lysates. IC50 values were calculated by nonlinear regression analysis using a 4-parameter logistic curve fit in ActivityBase XE (JDBS).

The mark [4] stands for this setting: KDR autophosphorylation ELISA in HUVEC cells.
The mark [5] stands for this setting: Met autophosphorylation ELISA in PC-3 cells.
[6] abbreviates: Mer autophosphorylation ELISA in transient transfected 293A cells.

Like-named read-outs stand apart in the source and are kept apart here. A value given as a limit tells only on which side of the number the result lay.

Drawing on US12371428B2 (Exelixis, Inc., priority 2019, dated 2025), this text covers IC50 for 13 compounds.

Chain of KDR (phospho-KDR, VEGF165-stimulated HUVEC cells) (P35968 20-1356): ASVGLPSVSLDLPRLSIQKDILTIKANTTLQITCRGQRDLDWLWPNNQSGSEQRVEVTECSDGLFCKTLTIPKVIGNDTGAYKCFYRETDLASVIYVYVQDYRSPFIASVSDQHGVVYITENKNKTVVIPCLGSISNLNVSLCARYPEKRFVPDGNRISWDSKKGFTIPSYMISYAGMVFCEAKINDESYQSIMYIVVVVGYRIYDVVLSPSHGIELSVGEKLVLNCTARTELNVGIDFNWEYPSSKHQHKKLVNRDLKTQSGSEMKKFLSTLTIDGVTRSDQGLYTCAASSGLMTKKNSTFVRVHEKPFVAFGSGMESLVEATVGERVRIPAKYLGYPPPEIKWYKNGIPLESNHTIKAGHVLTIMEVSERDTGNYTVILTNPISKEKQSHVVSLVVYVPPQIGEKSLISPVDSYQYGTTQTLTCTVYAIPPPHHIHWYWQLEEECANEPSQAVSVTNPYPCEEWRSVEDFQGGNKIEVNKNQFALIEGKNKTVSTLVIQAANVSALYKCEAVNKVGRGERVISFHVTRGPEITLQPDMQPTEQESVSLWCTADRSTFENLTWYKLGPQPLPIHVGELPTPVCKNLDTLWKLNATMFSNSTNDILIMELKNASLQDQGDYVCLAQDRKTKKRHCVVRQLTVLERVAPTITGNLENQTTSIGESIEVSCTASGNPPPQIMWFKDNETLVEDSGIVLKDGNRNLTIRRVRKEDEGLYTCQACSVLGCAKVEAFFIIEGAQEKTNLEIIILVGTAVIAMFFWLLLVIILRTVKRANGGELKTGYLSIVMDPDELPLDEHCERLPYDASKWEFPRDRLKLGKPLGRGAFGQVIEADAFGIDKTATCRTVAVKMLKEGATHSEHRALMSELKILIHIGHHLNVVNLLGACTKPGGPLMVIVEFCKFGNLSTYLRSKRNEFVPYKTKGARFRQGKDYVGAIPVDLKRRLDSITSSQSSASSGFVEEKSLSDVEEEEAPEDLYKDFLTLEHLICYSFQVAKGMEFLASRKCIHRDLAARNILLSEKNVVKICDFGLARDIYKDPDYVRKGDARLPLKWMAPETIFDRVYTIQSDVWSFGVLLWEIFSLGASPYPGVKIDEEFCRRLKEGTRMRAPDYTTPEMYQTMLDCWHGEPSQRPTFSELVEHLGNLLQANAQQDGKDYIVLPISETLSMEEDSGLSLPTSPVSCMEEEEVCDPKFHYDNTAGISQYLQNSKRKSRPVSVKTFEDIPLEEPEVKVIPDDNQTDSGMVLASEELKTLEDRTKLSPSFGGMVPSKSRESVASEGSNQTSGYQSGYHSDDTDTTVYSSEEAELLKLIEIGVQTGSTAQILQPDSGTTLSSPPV
Chain of Mer (phospho-Mer, MERTK-transfected 293A cells) (Q12866 21-999): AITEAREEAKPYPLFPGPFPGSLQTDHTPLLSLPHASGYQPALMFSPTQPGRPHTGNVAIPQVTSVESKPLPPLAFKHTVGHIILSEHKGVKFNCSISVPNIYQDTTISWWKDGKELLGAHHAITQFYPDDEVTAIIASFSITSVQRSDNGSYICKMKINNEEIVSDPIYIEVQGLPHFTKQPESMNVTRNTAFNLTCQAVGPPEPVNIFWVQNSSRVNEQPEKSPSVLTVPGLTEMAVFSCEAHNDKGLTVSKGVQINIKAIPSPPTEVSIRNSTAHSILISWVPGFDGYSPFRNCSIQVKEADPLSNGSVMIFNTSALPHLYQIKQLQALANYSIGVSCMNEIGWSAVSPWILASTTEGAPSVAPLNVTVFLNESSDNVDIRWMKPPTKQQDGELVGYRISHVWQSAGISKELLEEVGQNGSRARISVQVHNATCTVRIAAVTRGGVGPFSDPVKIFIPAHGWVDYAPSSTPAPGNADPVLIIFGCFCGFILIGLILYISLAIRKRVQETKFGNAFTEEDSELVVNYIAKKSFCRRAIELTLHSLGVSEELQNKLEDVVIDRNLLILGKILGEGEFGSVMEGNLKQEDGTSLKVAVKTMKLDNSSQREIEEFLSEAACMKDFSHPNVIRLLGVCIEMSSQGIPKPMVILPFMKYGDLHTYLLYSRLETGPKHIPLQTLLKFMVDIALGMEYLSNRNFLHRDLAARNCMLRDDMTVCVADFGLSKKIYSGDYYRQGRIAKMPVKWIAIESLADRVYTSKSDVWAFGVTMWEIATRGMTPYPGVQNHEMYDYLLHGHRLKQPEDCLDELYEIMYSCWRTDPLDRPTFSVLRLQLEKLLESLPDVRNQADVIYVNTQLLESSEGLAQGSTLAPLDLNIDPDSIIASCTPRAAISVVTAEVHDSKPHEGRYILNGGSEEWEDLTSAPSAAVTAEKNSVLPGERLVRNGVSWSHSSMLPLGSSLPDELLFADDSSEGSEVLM
Chain of Met (phospho-Met, HGF-stimulated PC-3 prostate cancer cells) (P08581 25-1390): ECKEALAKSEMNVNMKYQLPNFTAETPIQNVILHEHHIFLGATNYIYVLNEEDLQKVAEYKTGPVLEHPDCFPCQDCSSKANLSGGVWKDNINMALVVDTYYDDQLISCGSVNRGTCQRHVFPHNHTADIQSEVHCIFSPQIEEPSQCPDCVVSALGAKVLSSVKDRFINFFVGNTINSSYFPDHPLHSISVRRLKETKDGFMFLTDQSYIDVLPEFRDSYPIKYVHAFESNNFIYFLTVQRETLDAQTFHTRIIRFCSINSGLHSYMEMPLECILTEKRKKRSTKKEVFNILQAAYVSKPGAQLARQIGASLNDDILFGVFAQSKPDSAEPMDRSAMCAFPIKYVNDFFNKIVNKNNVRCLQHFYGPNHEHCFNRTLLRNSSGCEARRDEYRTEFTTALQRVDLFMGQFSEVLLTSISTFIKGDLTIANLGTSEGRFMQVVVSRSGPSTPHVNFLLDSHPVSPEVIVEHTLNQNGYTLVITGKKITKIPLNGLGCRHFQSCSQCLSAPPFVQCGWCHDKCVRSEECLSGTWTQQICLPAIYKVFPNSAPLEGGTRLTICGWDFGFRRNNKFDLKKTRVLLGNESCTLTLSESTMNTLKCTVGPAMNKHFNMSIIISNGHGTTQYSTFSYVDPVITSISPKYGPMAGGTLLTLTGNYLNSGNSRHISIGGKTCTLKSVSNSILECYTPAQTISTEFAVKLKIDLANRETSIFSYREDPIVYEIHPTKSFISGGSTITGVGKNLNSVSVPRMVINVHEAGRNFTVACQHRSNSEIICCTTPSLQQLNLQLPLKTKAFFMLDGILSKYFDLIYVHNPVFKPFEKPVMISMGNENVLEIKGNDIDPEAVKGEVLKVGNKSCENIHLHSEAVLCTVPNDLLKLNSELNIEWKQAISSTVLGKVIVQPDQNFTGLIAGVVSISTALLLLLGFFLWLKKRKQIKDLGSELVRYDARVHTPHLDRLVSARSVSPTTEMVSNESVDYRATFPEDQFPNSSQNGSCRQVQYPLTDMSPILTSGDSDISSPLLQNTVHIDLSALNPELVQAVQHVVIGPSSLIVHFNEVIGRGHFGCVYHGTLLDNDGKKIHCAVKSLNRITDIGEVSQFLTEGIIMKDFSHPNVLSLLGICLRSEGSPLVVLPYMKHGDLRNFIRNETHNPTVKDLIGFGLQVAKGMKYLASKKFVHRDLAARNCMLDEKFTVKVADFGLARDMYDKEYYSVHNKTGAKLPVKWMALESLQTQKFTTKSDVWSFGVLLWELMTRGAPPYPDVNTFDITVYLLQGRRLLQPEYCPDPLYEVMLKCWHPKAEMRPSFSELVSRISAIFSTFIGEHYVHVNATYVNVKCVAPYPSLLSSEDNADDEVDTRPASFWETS

By IC50 is commonly meant the midpoint of a concentration-inhibition curve. As for `COc1cc2nccc(Oc3cc(F)c(NC(=O)c4c(C)nc(C)c(-c5ccc(F)cc5F)c4O)cc3F)c2nc1OC` [Compound 777, 5-(2,4-difluorophenyl)-N-[4-[(6,7-dimethoxy-1,5-naphthyridin-4-yl)oxy]-2,5-difluorophenyl]-4-hydroxy-2,6-dimethylpyridine-3-carboxamide], the IC50 in assay [1] (setting [4]), in assay [2] (setting [5]) and in assay [3] (setting [6]) was less than 100 nM throughout.
For `COCc1nc(C)c(-c2ccc(F)cc2F)c(O)c1C(=O)Nc1cc(F)c(Oc2ccnc3cc(OC)c(OC)nc23)cc1F` [Compound 778, 5-(2,4-difluorophenyl)-N-[4-[(6,7-dimethoxy-1,5-naphthyridin-4-yl)oxy]-2,5-difluorophenyl]-4-hydroxy-2-(methoxymethyl)-6-methylpyridine-3-carboxamide], the IC50 in assay [1] (setting [4]), in assay [2] (setting [5]) and in assay [3] (setting [6]) was less than 100 nM throughout.
As for `COc1cnc2c(Oc3cc(F)c(NC(=O)c4c(C)nc(C)c(-c5ccc(F)cc5F)c4O)cc3F)ccnc2c1` [Compound 779, N-[2,5-difluoro-4-[(7-methoxy-1,5-naphthyridin-4-yl)oxy]phenyl]-5-(2,4-difluorophenyl)-4-hydroxy-2,6-dimethylpyridine-3-carboxamide], the IC50 in assay [1] (setting [4]), in assay [2] (setting [5]) and in assay [3] (setting [6]) was less than 100 nM throughout.
With `CCOCc1nc(C)c(-c2ccc(F)cc2C)c(O)c1C(=O)Nc1ccc(Oc2ccnc3cc(OC)c(OC)nc23)cc1` [Compound 780, N-[4-[(6,7-dimethoxy-1,5-naphthyridin-4-yl)oxy]phenyl]-2-(ethoxymethyl)-5-(4-fluoro-2-methylphenyl)-4-hydroxy-6-methylpyridine-3-carboxamide], the figures for the IC50 in assay [1] (setting [4]), in assay [2] (setting [5]) and in assay [3] (setting [6]) were 100 to 300 nM, less than 100 nM and less than 100 nM, respectively.
For `CCOCc1nc(C)c(-c2ccc(F)cc2C)c(O)c1C(=O)Nc1ccc(Oc2ccnc3cc(OC)cnc23)cc1` [Compound 781, 2-(ethoxymethyl)-5-(4-fluoro-2-methylphenyl)-4-hydroxy-N-[4-[(7-methoxy-1,5-naphthyridin-4-yl)oxy]phenyl]-6-methylpyridine-3-carboxamide], the values for the IC50 in assay [1] (setting [4]), in assay [2] (setting [5]) and in assay [3] (setting [6]) were greater than 300 nM, less than 100 nM and less than 100 nM, respectively.
For `COc1cc2nccc(Oc3ccc(NC(=O)c4c(C)n(CC(F)F)cc(-c5ccc(F)cc5C)c4=O)cc3F)c2nc1OC` [Compound 786, 1-(2,2-difluoroethyl)-N-[4-[(6,7-dimethoxy-1,5-naphthyridin-4-yl)oxy]-3-fluorophenyl]-5-(4-fluoro-2-methylphenyl)-2-methyl-4-oxopyridine-3-carboxamide], the half-maximal inhibitory concentration (IC50) in assay [1] (setting [4]), in assay [2] (setting [5]) and in assay [3] (setting [6]) was less than 100 nM each time.
As to `COc1cc2nccc(Oc3ccc(NC(=O)c4cc(C(C)O)c(C)n(-c5ccc(F)cc5)c4=O)cc3F)c2nc1OC` (stereo not drawn) [Compound 787, N-[4-[(6,7-dimethoxy-1,5-naphthyridin-4-yl)oxy]-3-fluorophenyl]-1-(4-fluorophenyl)-5-(1-hydroxyethyl)-6-methyl-2-oxopyridine-3-carboxamide], the IC50 in assay [1] (setting [4]) was greater than 300 nM; in assay [2] (setting [5]), less than 100 nM; in assay [3] (setting [6]), less than 100 nM.
On to `COc1cc2nccc(Oc3ccc(NC(=O)c4c(C)n(CC(F)F)cc(-c5ccc(F)cc5)c4=O)cc3)c2nc1OC` [Compound 788, 1-(2,2-difluoroethyl)-N-[4-[(6,7-dimethoxy-1,5-naphthyridin-4-yl)oxy]phenyl]-5-(4-fluorophenyl)-2-methyl-4-oxopyridine-3-carboxamide], for which the figures for the IC50 in assay [1] (setting [4]), in assay [2] (setting [5]) and in assay [3] (setting [6]) were 100 to 300 nM, less than 100 nM and less than 100 nM, respectively.
In the case of `COc1cc2nccc(Oc3ccc(NC(=O)c4c(C)n(CC(F)(F)F)cc(-c5ccc(F)cc5)c4=O)cc3)c2nc1OC` [Compound 789, N-[4-[(6,7-dimethoxy-1,5-naphthyridin-4-yl)oxy]phenyl]-5-(4-fluorophenyl)-2-methyl-4-oxo-1-(2,2,2-trifluoroethyl)pyridine-3-carboxamide], the IC50 is greater than 300 nM in assay [1] (setting [4]), less than 100 nM in assay [2] (setting [5]) and less than 100 nM in assay [3] (setting [6]).
Take `COc1cnc2c(Oc3ccc(NC(=O)c4c(C)n(CC(F)(F)F)cc(-c5ccc(F)cc5)c4=O)cc3F)ccnc2c1` [Compound 790, N-[3-fluoro-4-[(7-methoxy-1,5-naphthyridin-4-yl)oxy]phenyl]-5-(4-fluorophenyl)-2-methyl-4-oxo-1-(2,2,2-trifluoroethyl)pyridine-3-carboxamide]: the figures for the IC50 in assay [1] (setting [4]), in assay [2] (setting [5]) and in assay [3] (setting [6]) were greater than 300 nM, less than 100 nM and less than 100 nM, respectively.
For the compound `COc1cc2nccc(Oc3ccc(NC(=O)c4c(C)n(C)c(C)c(-c5ccc(F)cc5C)c4=O)cc3)c2nc1OC` [Compound 791, N-[4-[(6,7-dimethoxy-1,5-naphthyridin-4-yl)oxy]phenyl]-5-(4-fluoro-2-methylphenyl)-1,2,6-trimethyl-4-oxopyridine-3-carboxamide], the results for the IC50 in assay [1] (setting [4]), in assay [2] (setting [5]) and in assay [3] (setting [6]) were greater than 300 nM, less than 100 nM and less than 100 nM, respectively.
`COc1cnc2c(Oc3ccc(NC(=O)c4c(C)n(CC(F)F)cc(-c5ccc(F)c(F)c5)c4=O)cc3F)ccnc2c1` [Compound 817, 1-(2,2-difluoroethyl)-5-(3,4-difluorophenyl)-N-[3-fluoro-4-[(7-methoxy-1,5-naphthyridin-4-yl)oxy]phenyl]-2-methyl-4-oxopyridine-3-carboxamide]: the values for the IC50 in assay [1] (HUVEC cells), in assay [2] (PC-3 cells) and in assay [3] (transfected 293A cells) were greater than 300 nM, less than 100 nM and less than 100 nM, respectively.
As to `COc1cnc2c(Oc3ccc(NC(=O)c4c(C)n(C)c(C)c(-c5ccc(F)cc5OC)c4=O)cc3F)ccnc2c1` [Compound 818, N-[3-fluoro-4-[(7-methoxy-1,5-naphthyridin-4-yl)oxy]phenyl]-5-(4-fluoro-2-methoxyphenyl)-1,2,6-trimethyl-4-oxopyridine-3-carboxamide], the IC50 is greater than 300 nM in assay [1] (HUVEC cells), less than 100 nM in assay [2] (PC-3 cells) and less than 100 nM in assay [3] (transfected 293A cells).
